Experimental data reported in US20230391752A1, “PYRROLIDINE-3-CARBOXAMIDE DERIVATIVES AND RELATED USES” (Chulalongkorn University, priority 2020, published 2023).

What follows are molecules tested on HBV (assay: In vitro anti-HBV activity in HepG2.2.15 cell line (intracellular HBV DNA by qPCR at 1 μM)). Conditions: Hepatitis B virus, 144 h; HepG2.2.15 cells, 1 μM compound, 6 days, intracellular HBV DNA as percentage compared to vehicle control (0.5% DMSO).
Assay type: cell-based
Procedure, shortened: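 Intracellular HBV DNA was quantified by qPCR and given as percent of vehicle (0.5% DMSO), grouped into letter ranges. Stably transfected HepG2.2.15 cells had 6 days of exposure to 1 μM compound, with medium and compound renewed after day 3.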

First: N#Cc1cc(NC(=O)[C@H]2CCN(C(=O)c3ccc(-c4cccnc4)[nH]3)C2)ccc1F [Example 75, (S)—N-(3-cyano-4-fluorophenyl)-1-(5-(pyridin-3-yl)-1H-pyrrole-2-carbonyl)pyrrolidine-3-carboxamide]
Second: N#Cc1cc(NC(=O)[C@H]2CCN(C(=O)c3ccc(-c4ccncc4)[nH]3)C2)ccc1F [Example 78, (S)—N-(3-cyano-4-fluorophenyl)-1-(5-(pyridin-4-yl)-1H-pyrrole-2-carbonyl)pyrrolidine-3-carboxamide]
The activity at 1 µM of the first is lower: 60 to 70% for the first, 70 to 80% for the second.

`N#Cc1cc(NC(=O)[C@H]2CCN(C(=O)c3ccc(-c4ccc(F)cc4)[nH]3)C2)ccc1F` [Example 76, (S)—N-(3-cyano-4-fluorophenyl)-1-(5-(4-fluorophenyl)-1H-pyrrole-2-carbonyl)pyrrolidine-3-carboxamide] and `Cc1ncccc1-c1ccc(C(=O)N2CC[C@H](C(=O)Nc3ccc(F)c(C#N)c3)C2)[nH]1` [Example 81, (S)—N-(3-cyano-4-fluorophenyl)-1-(5-(2-methylpyridin-3-yl)-1H-pyrrole-2-carbonyl) pyrrolidine-3-carboxamide] fall in the same range of activity at 1 µM: 45 to 60% for the first, 45 to 60% for the second.

Compared with `O=C(Nc1cc(F)c(F)c(F)c1)[C@H]1CCN(C(=O)c2ccc(-c3ccncc3)[nH]2)C1` [Example 77, (S)-1-(5-(pyridin-4-yl)-1H-pyrrole-2-carbonyl)-N-(3,4,5-trifluorophenyl)pyrrolidine-3-carboxamide], `O=C(Nc1cc(F)c(F)c(F)c1)[C@H]1CCN(C(=O)c2ccc(-c3cccnc3)[nH]2)C1` [Example 82] is higher in activity at 1 µM: under 45% for the first, 45 to 60% for the second.

`O=C(Nc1cc(F)c(F)c(F)c1)[C@H]1CCN(C(=O)c2ccc(-c3cncnc3)[nH]2)C1` [Example 79, (S)-1-(5-(pyrimidin-5-yl)-1H-pyrrole-2-carbonyl)-N-(3,4,5-trifluorophenyl)pyrrolidine-3-carboxamide] and `Cc1ncc(-c2ccc(C(=O)N3CC[C@H](C(=O)Nc4cc(F)c(F)c(F)c4)C3)[nH]2)cn1` [Example 86, (S)-1-(5-(2-methylpyrimidin-5-yl)-1H-pyrrole-2-carbonyl)-N-(3,4,5-trifluorophenyl)pyrrolidine-3-carboxamide] cannot be ordered by activity at 1 µM: under 45% for the first, under 45% for the second.

`Cc1ncccc1-c1ccc(C(=O)N2CC[C@H](C(=O)Nc3cc(F)c(F)c(F)c3)C2)[nH]1` [Example 80, (S)-1-(5-(2-methylpyridin-3-yl)-1H-pyrrole-2-carbonyl)-N-(3,4,5-trifluorophenyl) pyrrolidine-3-carboxamide] and `N#Cc1ncccc1-c1ccc(C(=O)N2CC[C@H](C(=O)Nc3cc(F)c(F)c(F)c3)C2)[nH]1` [Example 97, (S)-1-(5-(2-cyanopyridin-3-yl)-1H-pyrrole-2-carbonyl)-N-(3,4,5-trifluorophenyl) pyrrolidine-3-carboxamide] cannot be ordered by activity at 1 µM: under 45% for the first, under 45% for the second.

Going from `C[C@H]1[C@@H](C(=O)Nc2cc(F)c(F)c(F)c2)CCN1C(=O)c1ccc(-c2cnccn2)[nH]1` [Example 84, (2S,3S)-2-methyl-1-(5-(pyrazin-2-yl)-1H-pyrrole-2-carbonyl)-N-(3,4,5-trifluorophenyl) pyrrolidine-3-carboxamide] to `Cc1nccnc1-c1ccc(C(=O)N2CC[C@H](C(=O)Nc3cc(F)c(F)c(F)c3)[C@@H]2C)[nH]1` [Example 93, (2S,3S)-2-methyl-1-(5-(3-methylpyrazin-2-yl)-1H-pyrrole-2-carbonyl)-N-(3,4,5-trifluorophenyl) pyrrolidine-3-carboxamide], the activity at 1 µM falls from over 90% to under 45%.

`Cc1n[nH]c(C)c1-c1ccc(C(=O)N2CC[C@H](C(=O)Nc3cc(F)c(F)c(F)c3)C2)[nH]1` [Example 87, (S)-1-(5-(3,5-dimethyl-1H-pyrazol-4-yl)-1H-pyrrole-2-carbonyl)-N-(3,4,5-trifluorophenyl) pyrrolidine-3-carboxamide] and `Cc1nn(C)c(C)c1-c1ccc(C(=O)N2CC[C@H](C(=O)Nc3cc(F)c(F)c(F)c3)C2)[nH]1` [Example 88, (S)—N-(3,4,5-trifluorophenyl)-1-(5-(1,3,5-trimethyl-1H-pyrazol-4-yl)-1H-pyrrole-2-carbonyl) pyrrolidine-3-carboxamide] cannot be ordered by activity at 1 µM: under 45% for the first, under 45% for the second.

Compared with `Cc1ncncc1-c1ccc(C(=O)N2CC[C@H](C(=O)Nc3cc(F)c(F)c(F)c3)C2)[nH]1` [Example 89, (S)-1-(5-(4-methylpyrimidin-5-yl)-1H-pyrrole-2-carbonyl)-N-(3,4,5-trifluorophenyl) pyrrolidine-3-carboxamide], `Cc1nccnc1-c1ccc(C(=O)N2CC[C@H](C(=O)Nc3cc(F)c(F)c(F)c3)C2)[nH]1` [Example 92, (S)-1-(5-(3-methylpyrazin-2-yl)-1H-pyrrole-2-carbonyl)-N-(3,4,5-trifluorophenyl)pyrrolidine-3-carboxamide] is higher in activity at 1 µM: under 45% for the first, 45 to 60% for the second.

Compared with `O=C(Nc1cc(F)c(F)c(F)c1)[C@H]1CCN(C(=O)c2ccc(-c3ccccn3)[nH]2)C1` [Example 90, (S)-1-(5-(pyridin-2-yl)-1H-pyrrole-2-carbonyl)-N-(3,4,5-trifluorophenyl)pyrrolidine-3-carboxamide], `O=C(Nc1cc(F)c(F)c(F)c1)[C@H]1CCN(C(=O)c2ccc(-c3cccnn3)[nH]2)C1` [Example 96, (S)-1-(5-(pyridazin-3-yl)-1H-pyrrole-2-carbonyl)-N-(3,4,5-trifluorophenyl)pyrrolidine-3-carboxamide] is lower in activity at 1 µM: 70 to 80% for the first, 45 to 60% for the second.

First: Cn1ccnc1-c1ccc(C(=O)N2CC[C@H](C(=O)Nc3cc(F)c(F)c(F)c3)C2)[nH]1 [Example 91, (S)-1-(5-(1-methyl-1H-imidazol-2-yl)-1H-pyrrole-2-carbonyl)-N-(3,4,5-trifluorophenyl)pyrrolidine-3-carboxamide]
Second: Cc1ncn(C)c1-c1ccc(C(=O)N2CC[C@H](C(=O)Nc3cc(F)c(F)c(F)c3)C2)[nH]1 [Example 107, (S)-1-(5-(1,4-dimethyl-1H-imidazol-5-yl)-1H-pyrrole-2-carbonyl)-N-(3,4,5-trifluorophenyl) pyrrolidine-3-carboxamide]
The activity at 1 µM of the first is lower: under 45% for the first, 70 to 80% for the second.

First: Cc1ncnc(C)c1-c1ccc(C(=O)N2CC[C@H](C(=O)Nc3ccc(F)c(C#N)c3)C2)[nH]1 [Example 94, (S)—N-(3-cyano-4-fluorophenyl)-1-(5-(4,6-dimethylpyrimidin-5-yl)-1H-pyrrole-2-carbonyl)pyrrolidine-3-carboxamide]
Second: COc1ncnc(C)c1-c1ccc(C(=O)N2CC[C@H](C(=O)Nc3ccc(F)c(Cl)c3)C2)[nH]1 [Example 106, (S)—N-(3-chloro-4-fluorophenyl)-1-(5-(4-methoxy-6-methylpyrimidin-5-yl)-1H-pyrrole-2-carbonyl)pyrrolidine-3-carboxamide]
The activity at 1 µM of the first is higher: 60 to 70% for the first, under 45% for the second.

First: O=C(Nc1cc(F)c(F)c(F)c1)[C@H]1CCN(C(=O)c2ccc(-c3ccncc3F)[nH]2)C1 [Example 95, (S)-1-(5-(3-fluoropyridin-4-yl)-1H-pyrrole-2-carbonyl)-N-(3,4,5-trifluorophenyl) pyrrolidine-3-carboxamide]
Second: Cc1ccnnc1-c1ccc(C(=O)N2CC[C@H](C(=O)Nc3cc(F)c(F)c(F)c3)C2)[nH]1 [Example 98, (S)-1-(5-(4-methylpyridazin-3-yl)-1H-pyrrole-2-carbonyl)-N-(3,4,5-trifluorophenyl) pyrrolidine-3-carboxamide]
The activity at 1 µM of the first is lower: 45 to 60% for the first, 70 to 80% for the second.
